Measurements: article PMC12210654, “Palazestrant, a novel oral Complete Estrogen Receptor Antagonist (CERAN) and Selective Estrogen Receptor Degrader (SERD), in patients with ER+/HER2− advanced or metastatic breast cancer: phase 1/2 study results” (Breast Cancer Research : BCR, 2025)

Assays:
Ki67 = Ki67 immunohistochemistry of tumor samples; type: in vivo, human; settings: cycle 3 day 1 (N = 12), all dose levels; baseline 29.2% (N = 18); P = 0.041
Procedure: All immunohistochemistry analyses from tumor samples were performed at ICON Central Laboratories (Farmingdale, NY, USA) using the Ventana® BenchMark ULTRA™ automated staining instrument (Oro Valley, AZ, USA). Positive- and negative-control tissue and negative reagent controls were run for each marker, as well as low-ER controls for each run. Estrogen receptor levels were estimated as the number of positive tumor nuclei divided by the total number of tumor nuclei, expressed as a percentage for each receptor type. Evaluation of Ki67 was performed in accordance with Ki67 Working Group recommendations: 1) only nuclear staining was assessed as positive; 2) in cases of tumor heterogeneity (hot spots), 2 counts were performed and the average was reported; and 3) lymphocyte-rich areas were avoided when possible. Presence of activating ESR1 mutations (amino acid regions 370–381, 460–473, and 529–538) and their mutant allele fractions (MAFs) were determined in cell-free DNA (cfDNA), collected at baseline and at 8 weeks on treatment using the SafeSEQ Breast Cancer Panel (Sysmex Inostics, Baltimore, MD, USA).
In patients who underwent biomarker testing, samples collected on cycle 3 day 1 of treatment across all dose levels were compared to baseline samples to assess changes during treatment. […]

[1] = parameters: method as in PMID 38102750; settings: preclinical; cited from earlier work

In the case of CCCN1CC(Oc2ccc([C@@H]3c4[nH]c5ccccc5c4C[C@@H](C)N3CC(C)(C)F)cc2)C1 [palazestrant, Palazestrant], the “Ki67 levels on treatment” value (Ki67) is listed as 20.4% and the “pharmacokinetics relative to fulvestrant and elacestrant” value [1] is listed as “superior pharmacokinetics”.
